Molecular target: T1, L-aspartate-α-decarboxylase (Escherichia coli, UniProt P0A790)
T1 construct: expressed in transfected cells; host or cells: E. coli W3110 transformed with pIF309 = strain NS3291 (ATCC 98675), whole cells
Test: Temperature study, 37° C. (Example 9)
Assay type: biochemical, E. coli K12
Conditions: for concentration in supernatant fluid / percent remaining: 1.0M, 100 g/l cells
Experimental: 133.1 g (1 mol) of D/L-aspartic acid was dissolved in deionized H2 O and the pH was adjusted to 7.0 with 10N NaOH, approximately 100 ml. Cells, freshly thawed from -80° C., were added to achieve a final concentration of 100 g/l. Three 2 L fermentors were each charged with 963 ml of substrate solution and 137 ml of cells and then heated to 37° C. and 45° C. while mixing at 300 rpm or heated to 50° C. while mixing at 450 rpm. Samples, approximately 1 ml, were removed over time and pH adjusted to 7.0 with either NaOH or HCl. After centrifugation to remove cells, the supernatant fluid was analyzed for both D- and L-aspartic acid.

T1 sequence (P0A790 25-126): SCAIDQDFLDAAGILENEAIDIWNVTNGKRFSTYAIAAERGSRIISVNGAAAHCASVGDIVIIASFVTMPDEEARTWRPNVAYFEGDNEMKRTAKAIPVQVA
T1 sequence (P0A790 1-24): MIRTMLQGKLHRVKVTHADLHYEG

| SMILES | concentration in supernatant fluid (0.0000 hr) [mg/mL] | concentration in supernatant fluid (2.5000 hr) [mg/mL] | percent remaining (2.5000 hr) [%] | concentration in supernatant fluid (4.0000 hr) [mg/mL] | percent remaining (4.0000 hr) [%] | concentration in supernatant fluid (6.0000 hr) [mg/mL] | percent remaining (6.0000 hr) [%] | concentration in supernatant fluid (8.0000 hr) [mg/mL] | percent remaining (8.0000 hr) [%] | concentration in supernatant fluid (10.000 hr) [mg/mL] | percent remaining (10.000 hr) [%] | concentration in supernatant fluid (12.000 hr) [mg/mL] | percent remaining (12.000 hr) [%] | concentration in supernatant fluid (20.000 hr) [mg/mL] | percent remaining (20.000 hr) [%] | concentration in supernatant fluid (24.000 hr) [mg/mL] | percent remaining (24.000 hr) [%] | concentration in supernatant fluid (29.000 hr) [mg/mL] | percent remaining (29.000 hr) [%] | concentration in supernatant fluid (34.000 hr) [mg/mL] | also measured |
| --- | --- | --- | --- | --- | --- | --- | --- | --- | --- | --- | --- | --- | --- | --- | --- | --- | --- | --- | --- | --- | --- |
| N[C@@H](CC(=O)O)C(=O)O [L-Asp, L-aspartic acid] | 53.700 | 48.940 | 91.136 | 47.600 | 88.641 | 46.170 | 85.978 | 44.810 | 83.445 | 42.120 | 78.436 | 42.120 | 78.462 | 35.960 | 66.965 | 34.840 | 64.879 | 28.040 | 54.078 | 28.040 | percent remaining (34.000 hr): 54.078%; concentration in supernatant fluid (44.000 hr): 21.670 mg/mL; percent remaining (44.000 hr): 40.354%; concentration in supernatant fluid (48.000 hr): 18.440 mg/mL; percent remaining (48.000 hr): 34.339%; concentration in supernatant fluid (68.000 hr): 5.9700 mg/mL; percent remaining (68.000 hr): 11.117%; concentration in supernatant fluid (92.000 hr): 0.915 mg/mL; percent remaining (92.000 hr): 1.7039%; consumption of the isomer (by 99.75 hours): almost completely consumed |
| N[C@H](CC(=O)O)C(=O)O [D-Asp, D-aspartic acid] | 55.000 | 54.310 | 98.745 | 54.440 | 98.982 | 54.470 | 99.036 | 54.760 | 99.564 | 55.840 | 101.53 | 56.760 | 103.20 | 55.460 | 100.84 | 55.390 | 100.71 | 53.990 | 98.164 | 53.440 | stability of the isomer: stable; percent remaining (34.000 hr): 97.164%; concentration in supernatant fluid (44.000 hr): 52.960 mg/mL; percent remaining (44.000 hr): 96.291%; concentration in supernatant fluid (48.000 hr): 52.940 mg/mL; percent remaining (48.000 hr): 96.255%; concentration in supernatant fluid (68.000 hr): 49.940 mg/mL; percent remaining (68.000 hr): 90.800%; concentration in supernatant fluid (92.000 hr): 50.670 mg/mL; percent remaining (92.000 hr): 92.127% |

— patent US5834259A, “Process and composition for preparing D-aspartic acid” (Monsanto Company, priority 1996, dated 1998)
